In ChEMBL document CHEMBL3817819, “Development and application of ligand-based NMR screening assays for -butyrobetaine hydroxylase” (Medchemcomm, 2016):
Calls of active or inactive are those of the source. No cut-off for these calls is given here.

Key:
[1] = target: T1, Gamma-butyrobetaine dioxygenase (Pseudomonas sp. (strain AK-1), UniProt P80193); experiment: Inhibition of Pseudomonas sp. AK1 BBOX using GBBF as substrate after 10 mins in presence of 2OG and Fe2+ using TBS-protected fluorescein probe by fluoride release assay
T1 sequence (P80193 whole entry): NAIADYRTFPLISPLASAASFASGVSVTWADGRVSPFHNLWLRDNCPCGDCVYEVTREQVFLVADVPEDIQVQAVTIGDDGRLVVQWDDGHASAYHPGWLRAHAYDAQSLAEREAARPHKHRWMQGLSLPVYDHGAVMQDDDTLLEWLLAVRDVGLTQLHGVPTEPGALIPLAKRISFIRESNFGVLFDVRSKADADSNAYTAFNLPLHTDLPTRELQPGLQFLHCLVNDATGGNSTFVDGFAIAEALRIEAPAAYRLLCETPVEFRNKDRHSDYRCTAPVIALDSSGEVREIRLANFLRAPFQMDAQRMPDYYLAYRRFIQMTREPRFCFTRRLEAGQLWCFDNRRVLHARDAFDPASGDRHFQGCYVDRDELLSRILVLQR

[2] = target: T1, Gamma-butyrobetaine dioxygenase; experiment: Inhibition of Pseudomonas sp. AK1 BBOX assessed as hydroxylation of GBB to L-carnitine measured for 60 sec in presence of 2OG and Fe2+ by 1H NMR assay
[3] = target: T2, Gamma-butyrobetaine dioxygenase (Pseudomonas sp. (strain AK-1)) (UniProt P80193); experiment: Inhibition of GBB binding to Pseudomonas sp. AK1 BBOX at 25 uM in presence of Mn2+ by 1H NMR GBB/2OG dual reporter displacement assay
T2 sequence (whole entry): T1 sequence (P80193 whole entry)

[4] = target: T1, Gamma-butyrobetaine dioxygenase; experiment: Binding affinity to Pseudomonas sp. AK1 BBOX by intrinsic tryptophan fluorescence quenching assay
[5] = target: T3, Gamma-butyrobetaine dioxygenase (Homo sapiens, UniProt O75936); experiment: Inhibition of human BBOX using GBBF as substrate in presence of 2OG and Fe2+ using TBS-protected fluorescein probe by fluoride release assay
T3 sequence (O75936 whole entry): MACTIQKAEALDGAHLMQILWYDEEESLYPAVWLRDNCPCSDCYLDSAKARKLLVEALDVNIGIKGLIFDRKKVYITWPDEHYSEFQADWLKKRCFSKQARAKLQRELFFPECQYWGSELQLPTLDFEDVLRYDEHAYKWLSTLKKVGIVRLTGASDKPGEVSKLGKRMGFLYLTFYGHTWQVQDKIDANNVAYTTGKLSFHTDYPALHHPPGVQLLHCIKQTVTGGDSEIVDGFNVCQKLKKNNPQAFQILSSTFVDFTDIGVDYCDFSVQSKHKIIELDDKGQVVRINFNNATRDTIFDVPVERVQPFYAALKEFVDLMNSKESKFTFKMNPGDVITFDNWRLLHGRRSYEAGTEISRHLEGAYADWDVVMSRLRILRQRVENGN

[6] = target: T2, Gamma-butyrobetaine dioxygenase (Pseudomonas sp. (strain AK-1)); experiment: Inhibition of 2OG binding to Pseudomonas sp. AK1 BBOX at 25 uM in presence of Mn2+ by 1H NMR GBB/2OG dual reporter displacement assay
[7] = target: T2, Gamma-butyrobetaine dioxygenase (Pseudomonas sp. (strain AK-1)); experiment: Induction of GBB binding to Pseudomonas sp. AK1 BBOX at 25 uM in presence of Mn2+ by 1H NMR GBB/2OG dual reporter displacement assay

| IC50 [1] | IC50 [2] | inhibition [3] | Kd [4] | IC50 [5] | inhibition [6] | Activity [7] | Structure (SMILES) |
| --- | --- | --- | --- | --- | --- | --- | --- |
| 26 µM | 0.9 µM | Active | 29 µM | 11 µM | Active |  | O=C(N[C@@H](Cc1c[nH]c2ccccc12)C(=O)O)c1nc(Cl)c2ccccc2c1O |
| 160 µM | 38 µM |  | 101 µM |  |  |  | O=C(O)C[C@@H](NC(=O)c1nc(Cl)c2ccccc2c1O)C(=O)O |
| 125 µM | 26 µM | Active | 55 µM |  | Active |  | CC(C)C[C@H](NC(=O)c1nc(Cl)c2ccccc2c1O)C(=O)O |
| 101 µM | 38 µM |  | 82 µM |  |  |  | O=C(N[C@H](Cc1ccccc1)C(=O)O)c1nc(Cl)c2ccccc2c1O |
| > 1000 µM | 94 µM | inactive | 103 µM |  | inactive |  | CC(C)C[C@@H](NC(=O)c1nc(Cl)c2ccccc2c1O)C(=O)O |
| 1.2 µM | 0.21 µM | inactive | 22 µM |  | Active | Active | O=C(O)CNC(=O)c1nc(Cl)c2ccccc2c1O |
| > 1000 µM | 18 µM |  | 168 µM | 33 µM |  |  | O=C(N[C@H](Cc1c[nH]c2ccccc12)C(=O)O)c1nc(Cl)c2ccccc2c1O |
| 13 µM | 1 µM | Active | 26 µM |  | Active |  | O=C(N[C@@H](Cc1ccccc1)C(=O)O)c1nc(Cl)c2ccccc2c1O |
| > 1000 µM | 86 µM | inactive | 89 µM |  | inactive |  | O=C(O)CC[C@@H](NC(=O)c1nc(Cl)c2ccccc2c1O)C(=O)O |
| > 1000 µM | 191 µM | inactive | 144 µM |  | inactive |  | CC(C)[C@@H](NC(=O)c1nc(Cl)c2ccccc2c1O)C(=O)O |
| 245 µM | 76 µM | inactive | 91 µM |  | Active |  | O=C(O)C[C@H](NC(=O)c1nc(Cl)c2ccccc2c1O)C(=O)O |
| 147 µM | 22 µM |  | 64 µM |  |  |  | O=C(O)CC[C@H](NC(=O)c1nc(Cl)c2ccccc2c1O)C(=O)O |
| 130 µM | 23 µM | Active | 55 µM |  | Active |  | CC(C)[C@H](NC(=O)c1nc(Cl)c2ccccc2c1O)C(=O)O |
